# According to patent publication US20120289452A1, “COMPOSITIONS AND METHODS FOR TREATING AND PREVENTING NECROSIS” (Ilana Nathan, priority 2002, published 2012):
# Residues, ends and D or L forms follow the SMILES beside them. *: point of attachment. MeOSuc = COC(=O)CCC(=O)*; CH2Cl = ClC*
# How the values were obtained:
# elastase-like activity [1] = experiment: Gelatin substrate gel electrophoresis of lysates of U-937 cells treated with KCN and elastase inhibitor; format: cell-based, Human; conditions: 5 mM KCN, 200 μM elastase inhibitor, 3 h
# PC-12 cells [2] = experiment: KCN-induced necrosis in PC-12 cells, morphological quantification; format: cell-based, rat
# Protocol: The rat pheochromocytoma PC-12 cell line was propagated in DMEM medium (Gibco, BRL), supplemented with 5% heat-inactivated calf serum, 10% heat-inactivated horse serum, and 2 mM L-glutamine. PC-12 cells in logarithmic phase were seeded at a concentration of 1.2×10^5/well in 24-well plates (Cellstar). Then the cells were washed twice and maintained in glucose-free RPMI-1640 medium (Beit Haemek, Israel), and supplemented with 2 mM pyruvate and 10% dialyzed FCS for one hour. […] Alternatively, cells were treated with or without 100 ng/ml anti-Fas (Upstate biotechnology, USA) for the same time period. U-937 and PC-12 cells cultured in complete RPMI-1640 medium were washed and seeded in glucose-free RPMI-1640 medium, as described above, and treated with or without 0.5 mM KCN (Merck, Germany) for seven hours with U-937 cells, or for five hours with PC-12 cells. […] Cells undergoing morphological changes associated with apoptotic or necrotic cell death were monitored as described by McGahon et al. [Methods Cell Biol, 46: p. […] The pellet was resuspended in a 20-fold dilution of the dye mixture (composed of 100 μg/ml acridine orange and 100 μg/ml ethidium bromide in PBS), placed on a glass slide and viewed on an inverted fluorescence microscope. A minimum of 200 cells was scored for each sample.
# U-937 cells [3] = experiment: Anti-Fas-induced apoptosis/necrosis in U-937 cells, morphological quantification (acridine orange/ethidium bromide); format: cell-based, Human; conditions: for effect on anti-Fas-induced apoptotic and necrotic cell death: anti-Fas with or without oligomycin, inhibitor added
# Protocol: (§1) Human promonocytic U-937 cells in logarithmic phase were seeded at a concentration of 4×10^5/ml. Afterwards the cells were washed twice and seeded again in glucose-free RPMI-1640 medium (Beit Haemek, Israel) supplemented with 2 mM pyruvate (Beit Haemek, Israel) and 10% dialyzed FCS (Gibco, BRL) for one hour.
# (§2) The rat pheochromocytoma PC-12 cell line was propagated in DMEM medium (Gibco, BRL), supplemented with 5% heat-inactivated calf serum, 10% heat-inactivated horse serum, and 2 mM L-glutamine. […]. Then the cells were washed twice and maintained in glucose-free RPMI-1640 medium (Beit Haemek, Israel), and supplemented with 2 mM pyruvate and 10% dialyzed FCS for one hour. U-937 and PC-12 cells were incubated with and without 1 μM oligomycin (Sigma) for 45 min, and cells were treated with or without 1.25 μM staurosporine (STS) (Sigma) for an additional seven hours in U-937 cells or five hours in PC-12 cells. Alternatively, cells were treated with or without 100 ng/ml anti-Fas (Upstate biotechnology, USA) for the same time period.
# (§3) 200 μM elastase inhibitor III (MeOSuc-Ala-Ala-Pro-Val-CMK from Calbiochem) when added was administered 30 min before addition of the inducers. The inhibitor was dissolved in DMSO to a concentration of 100 mM. The final concentration of DMSO in the system was 0.2%, and was added to all treatments. In separate experiments, 200 μM of an elastase inhibitor (CE1037, manufactured by Cortech Inc.) was administered 30 min before addition of the inducers. The inhibitor was dissolved in PBS.
# (§4) Cells undergoing morphological changes associated with apoptotic or necrotic cell death were monitored as described by McGahon et al. [Methods Cell Biol, 46: p. 153-85 (1995)]. Briefly, 1 ml of the cells was collected and centrifuged. The pellet was resuspended in a 20-fold dilution of the dye mixture (composed of 100 μg/ml acridine orange and 100 μg/ml ethidium bromide in PBS), placed on a glass slide and viewed on an inverted fluorescence microscope. A minimum of 200 cells was scored for each sample.
# PC-12 cells [4] = experiment: STS-induced apoptosis in PC-12 cells, morphological quantification; format: cell-based, rat
# Protocol: as §2, §3, §4
# PC-12 cells [5] = experiment: STS plus oligomycin-induced necrosis in PC-12 cells, morphological quantification; format: cell-based, rat
# Protocol: as §2
# as §3, with “200 μM elastase inhibitor III (MeOSuc-Ala-Ala-Pro-Val-CMK from Calbiochem) when added was administered 30 min before addition of the inducers.” left out
# as §4
# U-937 cells [6] = experiment: STS plus oligomycin-induced cell killing in U-937 cells, trypan blue exclusion; format: cell-based, Human
# Protocol: as §1, §2
# 200 μM elastase inhibitor III (MeOSuc-Ala-Ala-Pro-Val-CMK from Calbiochem) when added was administered 30 min before addition of the inducers. […]
# At each time point, cell viability was determined by the trypan blue exclusion method (Daniel C P, Parreira A., et al. Leukemia Res. 11:191-196 (1987). Assays were performed in duplicate.
# elastase-like activity [7] = experiment: Gelatin substrate gel electrophoresis of U-937 cell lysates, gel incubated with protease inhibitors; format: biochemical, Human; conditions: 100 μM inhibitor in gel incubation
# U-937 cells [8] = conditions: elastase inhibitor III without KCN
# [9] = 1.25 μM STS with 1 μM oligomycin, 100 μM elastase inhibitor
# [10] = lysate of U-937 cells treated with 0.5 mM KCN for 3 h
# [11] = lysate of U-937 cells treated with anti-Fas and oligomycin for 3 h
smiles,measurement,setting,value
CC(C)(CS(=O)(=O)c1ccc(OC(=O)C(C)(C)c2ccc(C(C)(C)C(=O)Oc3ccc(S(=O)(=O)CC(C)(C)C(=O)O)cc3)cc2)cc1)C(=O)O [CE1037],band of protease activity when KCN administered with inhibitor,elastase-like activity [1],disappeared
same,effect of inhibitor by itself,PC-12 cells [2]; 200 μM inhibitor without KCN,inactive by itself
same,effect on necrosis induced by KCN,"PC-12 cells [2]; 0.5 mM KCN, 200 μM inhibitor",significantly inhibited necrosis
same,effect on anti-Fas-induced apoptotic and necrotic cell death,U-937 cells [3],completely abrogated apoptotic as well as necrotic cell death
same,effect on apoptosis induced by STS,"PC-12 cells [4]; 1.25 μM STS, 200 μM elastase inhibitor",significantly inhibited apoptosis
same,effect of inhibitor by itself,PC-12 cells [4]; 200 μM elastase inhibitor without STS,inactive by itself
same,necrotic cell death,PC-12 cells [5]; [9],9%
same,necrotic cell death shifted to apoptotic cell death,PC-12 cells [5]; [9],39%
same,effect on necrosis induced by STS,"PC-12 cells [5]; 1.25 μM STS with 1 μM oligomycin, 200 μM elastase inhibitor",completely abrogated necrosis
same,effect of inhibitor by itself,PC-12 cells [5]; 200 μM elastase inhibitor alone,inactive by itself
same,effect of inhibitor by itself on cell survival,"U-937 cells [6]; 48 hours, inhibitor alone",slight effect by itself
same,"effect on cell killing induced by STS and oligomycin (cell viability, trypan blue)",U-937 cells [6]; prolonged incubation of 48 hours,significantly inhibited cell killing
"CC[C@H]1/C=C/C=C/C[C@@H](C)[C@H](O)[C@@](C)(O)C(=O)[C@@H](C)[C@H](O)[C@@H](C)C(=O)[C@@H](C)[C@H](O)[C@@H](C)/C=C/C(=O)O[C@@H]2[C@H](C)[C@H](CC1)O[C@]1(CC[C@H](C)[C@H](C[C@@H](C)O)O1)[C@H]2C [Oligomycin, oligomycin]",effect of oligomycin by itself on cell death,U-937 cells [3]; 1 μM oligomycin alone,inactive by itself
same,effect of oligomycin by itself on cell death,PC-12 cells [5]; oligomycin alone,inactive by itself
"CN[C@@H]1C[C@H]2O[C@@](C)([C@@H]1OC)n1c3ccccc3c3c4c(c5c6ccccc6n2c5c31)C(=O)NC4 [STS, staurosporine]",apoptosis,"PC-12 cells [4]; 1.25 μM STS alone, compared to control",about 73%
same,necrosis,PC-12 cells [5]; 1.25 μM STS with 1 μM oligomycin,about 70%
Cc1ccc(S(=O)(=O)N[C@@H](Cc2ccccc2)C(=O)CCl)cc1 [TPCK],band of protease activity in presence of inhibitor,elastase-like activity [7]; [10],not
same,band of protease activity in presence of inhibitor,elastase-like activity [7]; [11],not
"COC(=O)CCC(=O)N[C@@H](C)C(=O)N[C@@H](C)C(=O)N1CCC[C@H]1C(=O)N[C@H](C(=O)CCl)C(C)C [elastase inhibitor III, MeOSuc-Ala-Ala-Pro-Val-CMK] (MeOSuc-AAPV-CH2Cl)",cell damage by inhibitor alone,U-937 cells [8],did not cause any cell damage
CC(C)C[C@H](NC(=O)N[C@H](C(=O)N[C@@H](CCC(N)=O)C(=O)N[C@@H](C)C=O)[C@@H]1CCNC(=N)N1)C(=O)O [elastinal],effect on anti-Fas-induced apoptotic and necrotic cell death,U-937 cells [3],had no effect
same,band of protease activity in presence of inhibitor,elastase-like activity [7]; [10],disappeared
same,band of protease activity in presence of inhibitor,elastase-like activity [7]; [11],disappeared
